Test results reported in patent publication US8461150B2, “Chalcone linked pyrrolo[2,1-c][1, 4]benzodiazepine hybrids as potential anticancer agents and process for the preparation thereof” (Council of Scientific & Industrial Research, priority 2008, dated 2013).

Columns and labels:
[1] = test system: duplex-form calf thymus DNA (CT-DNA); test: Thermal denaturation studies with calf thymus DNA; assay type: binding; conditions: [PBD]:[DNA] molar ratio 1:5, CT-DNA 100 μM, ligand 20 μM, pH 7.00; for ΔTμ (° C.) after incubation at 37 °C. for 0 h: 0 h incubation; for ΔTμ (° C.) after incubation at 37 °C. for 18 h: 18 h incubation
Method: These compounds have also been subjected to thermal denaturation studies with duplex-form calf thymus DNA (CT-DNA) using an modification of a reported procedure. Working solutions in aqueous buffer (10 mM NaH2PO4/Na2HPO4, 1 mM Na2EDTA, pH 7.00+0.01) containing CT-DNA (100 μm in phosphate) and the PBD (20 μm) have been prepared by addition of concentrated PBD solutions in DMSO to obtain a fixed [PBD]/[DNA] molar ratio of 1:5. The DNA-PBD solutions have been incubated at 37° C. for 0 and 18 h prior to analysis. Samples have been monitored at 260 nm using a Beckman DU-800 spectrophotometer fitted with high performance temperature controller, and heated at 1° C. min^−1 in the 40-110° C. range. DNA helix→coil transition temperatures (Tm) have been obtained from the maxima in the d(A260)/d T derivative plots. Drug-induced alterations in DNA melting behavior are given by: ΔTm=Tm(DNA+PBD)−Tm(DNA alone), where the Tm value for the PBD-free CT-DNA is 68.5±0.01.

U251 (CNS) = test: Cytotoxicity in selected cancer cell lines (SRB, 48 h); assay type: cell-based, human
Method: (§1) Biological Activity: The in vitro cell line studies were carried out at the National Cancer Institute, Maryland, USA.
(§2) 6b, 6c, 6g, 10a and 10b were evaluated for in vitro anticancer activity against sixty human tumour cells derived from nine cancer types (leukemia, non-small-cell lung, colon, CNS, melanoma, ovarian, prostate, renal and breast cancer) as shown in (Table 1 and 2). For the compound, dose response curves for each cell line were measured at a minimum of five concentrations at 10 fold dilutions. A protocol of 48 h continuous drug exposure was used and a sulforhodamine B (SRB) protein assay was used to estimate cell viability or growth. The concentration causing 50% cell growth inhibition (GI50), total cell growth inhibition (TGI 0% growth) and 50% cell death (LC50, −50% growth) compared with the control was calculated.
(§3) Each cancer type represents the average of six to nine different cancer cell lines. In vitro evaluation of cytotoxic activity. The compound 6b, 6c, 6g 10a and 10b were evaluated for in vitro anticancer activity against nine human tumour cells derived from six cancer types (leukemia, colon, prostate, melanoma, ovarian, lung, cervix and breast cancer) as shown in Table 3. […] Compounds 6b, 6c, 6g, 10a and 10b have been evaluated for their in vitro cytotoxicity in selected human cancer cell lines of colon (Colo205), lung (NCI-H522, NCI-H226), colon (colo-205), prostate (DU145, PC3), ovarian (IGROV1, HT1080), and breast (MDA-MB-435, Zr-75-1), melanoma (LOXMIVI, VACC-62, SK-MEL-5) origin. A protocol of 48 h continuous drug exposure has been used and an […] has been used to estimate cell viability or growth. The results are expressed as percent of cell growth determined relative to that of untreated control cells

MALME-3M (Melanoma) = test: as above; assay type: cell-based, human
Method: as §1, §2, §3

LOX IMVI (Melanoma) = test: as above; assay type: cell-based, human
Method: as §1, §2, §3

CCRF-CEM (Leukemia) = test: as above; assay type: cell-based, human
Method: as §1, §2, §3

HCT-116 (Colon) = test: as above; assay type: cell-based, human
Method: as §1, §2, §3

HL-60(TB) (Leukemia) = test: as above; assay type: cell-based, human
Method: as §1, §2, §3

SK-MEL-5 (Melanoma) = test: as above; assay type: cell-based, human
Method: as §1, §2, §3

MDA-MB-231/ATCC (Breast) = test: as above; assay type: cell-based, human
Method: as §1, §2, §3

M14 (Melanoma) = test: as above; assay type: cell-based, human
Method: as §1, §2, §3

RPMI-8226 (Leukemia) = test: as above; assay type: cell-based, human
Method: as §1, §2, §3

TK-10 (Renal) = test: as above; assay type: cell-based, human
Method: as §1, §2, §3

[2] = test system: NCI-H522 (Non-small cell lung); test: as above; assay type: cell-based, human
Method: as §1, §2, §3

UACC-62 (Melanoma) = test: as above; assay type: cell-based, human
Method: as §1, §2, §3

OVCAR-3 (Ovarian) = test: as above; assay type: cell-based, human
Method: as §1, §2, §3

NCI/ADR-RES (Breast) = test: as above; assay type: cell-based, human
Method: as §1, §2, §3

786-0 (Renal) = test: as above; assay type: cell-based, human
Method: as §1, §2, §3

A498 (Renal) = test: as above; assay type: cell-based, human
Method: as §1, §2, §3

ACHN (Renal) = test: as above; assay type: cell-based, human
Method: as §1, §2, §3

UACC-257 (Melanoma) = test: as above; assay type: cell-based, human
Method: as §1, §2, §3

SW-620 (Colon) = test: as above; assay type: cell-based, human
Method: as §1, §2, §3

[3] = test system: NCI-H226 (Non-small cell lung); test: as above; assay type: cell-based, human
Method: as §1, §2, §3

HCT-15 (Colon) = test: as above; assay type: cell-based, human
Method: as §1, §2, §3

CAKI-1 (Renal) = test: as above; assay type: cell-based, human
Method: as §1, §2, §3

[4] = test system: NCI-H23 (Non-small cell lung); test: as above; assay type: cell-based, human
Method: as §1, §2, §3

UO-31 (Renal) = test: as above; assay type: cell-based, human
Method: as §1, §2, §3

SF-539 (CNS) = test: as above; assay type: cell-based, human
Method: as §1, §2, §3

Structure (SMILES)	ΔTμ (° C.) after incubation at 37 °C. for 0 h [1] [°C]	ΔTμ (° C.) after incubation at 37 °C. for 18 h [1] [°C]	GI50 (U251 (CNS)) [µM]	GI50 (MALME-3M (Melanoma)) [µM]	GI50 (LOX IMVI (Melanoma)) [µM]	GI50 (CCRF-CEM (Leukemia)) [µM]	GI50 (HCT-116 (Colon)) [µM]	GI50 (HL-60(TB) (Leukemia)) [µM]	GI50 (SK-MEL-5 (Melanoma)) [µM]	GI50 (MDA-MB-231/ATCC (Breast)) [µM]	GI50 (M14 (Melanoma)) [µM]	GI50 (RPMI-8226 (Leukemia)) [µM]	GI50 (TK-10 (Renal)) [µM]	GI50 [2] [µM]	GI50 (UACC-62 (Melanoma)) [µM]	GI50 (OVCAR-3 (Ovarian)) [µM]	GI50 (NCI/ADR-RES (Breast)) [µM]	GI50 (786-0 (Renal)) [µM]	GI50 (A498 (Renal)) [µM]	GI50 (ACHN (Renal)) [µM]	also measured
COc1cc(C=CC(=O)c2c(C)nc3ccccc3c2C)ccc1OCCCOc1cc2c(cc1OC)C(=O)N1CCC[C@H]1C=N2 [10a, 7-Methoxy-8-{3-[3-(4-hydroxy-3-methoxyphenyl)-1-(2,4-dimethyl-3-quinolyl)-2-propen-1-one]propyl}-oxy-(11aS)-1,2,3,11a-5H-pyrrolo[2,1-c][1,4]benzodiazepin-5-one]	4.0	4.6	19.8	24.2	18.2	12.5	21	25.2	20.9	19.9	14.5	15	33.2	10.8	15.1	24.9	17.6	17.3	20.1	32	GI50 (UACC-257 (Melanoma)): 22.9 µM; GI50 (SW-620 (Colon)): 26.6 µM; GI50 [3]: 10.8 µM; GI50 (HCT-15 (Colon)): 29.7 µM; GI50 (CAKI-1 (Renal)): 15.8 µM; GI50 [4]: 24.1 µM; GI50 (UO-31 (Renal)): 21.6 µM; GI50 (SF-539 (CNS)): 30.3 µM
COc1cc(C=CC(=O)c2c(C)nc3ccccc3c2C)ccc1OCCCCOc1cc2c(cc1OC)C(=O)N1CCC[C@H]1C=N2 [10b, 7-Methoxy-8-{4-[3-(4-hydroxy-3-methoxyphenyl)-1-(2,4-dimethyl-3-quinolyl)-2-propen-1-one]butyl}-oxy-(11aS)-1,2,3,11a-5H-pyrrolo[2,1-c][1,4]benzodiazepin-5-one]	4.3	4.9	15.7	36.2	15	13.4	14.6	24.5	23.3	14.2	18.8	13.8	31.4	9	22.5	26.3	16.9	14.9	19.5	36.1	GI50 (UACC-257 (Melanoma)): 15.9 µM; GI50 (SW-620 (Colon)): 25.9 µM; GI50 [3]: 10.1 µM; GI50 (HCT-15 (Colon)): 18.4 µM; GI50 (CAKI-1 (Renal)): 12.9 µM; GI50 [4]: 19.5 µM; GI50 (UO-31 (Renal)): 15.2 µM; GI50 (SF-539 (CNS)): 33.7 µM
